Here are results for three compounds from US20220252611A1 (priority 2019, published 2022).

Experiment [1] relates to alpha 2 adrenergic receptor. In words: Simultaneous MS binding assay, alpha 2 adrenergic receptor in rat cortex. The conditions noted are these: multiplexed with prazosine, FIG. 3A. As to the method:
(§1) FIG. 3A is a graph showing a simultaneous binding experiment with alpha1 and alpha 2 beta-adrenoceptors. The target molecules are comprised in rat cortex, which contains both alpha 1 and alpha 2 beta adrenoceptors. The test compound is WB4101 and the ligands are prazosine and RX821002.
(§2) This example used target molecule comprising both alpha 1 and alpha 2 beta adeno receptors incubated with WB4101 (test compound) in the presence prazosine (ligand, or “marker” for alpha 1) and RX821002 (ligand, or “marker” for alpha 2) as shown in FIG. 3A. In FIG. 3B, yohimbine (test compound) was tested in the presence of in the presence prazosine (marker for alpha 1) and RX821002 (marker for alpha 2). The signals are indicated ns for non-specific.
(§3) Rat cortexes from Wistar male rats were harvested and transferred to 50 mM Tris-HCl (pH, 7.4) and homogenized by a polyton. […] The pellet was finally resuspended in a smaller volume of lyses buffer and the final protein concentration was determined according to the Bradford method using bovine serum albumin as a standard. […]
(§4) The filters were dried for one hour at 50° C. and cooled to room temperature before elution of ligands using a acetonitrile (contained 100 μM of antipyrine as an internal standard) via a vacuum manifold. Relative quantification of ligand in each sample was performed by UHPLC-MS-MS, the ratio area of ligand and internal standard was used. […]

Experiment [2] concerns alpha 1 adrenergic receptor. In words: Simultaneous MS binding assay, alpha 1 adrenergic receptor in rat cortex. The note with it: multiplexed with RX821002, FIG. 3A. As to the method:
as §1, §2, §3, §4

The target of a further experiment is sodium channels. In words: Radioligand binding assay of sodium (Na) channel. The note with it: rat cortex sodium channels; first value column of Table 4 (SNR 6), taken as radioligand binding.
In experiment [3] the target is sodium channel (Na+) site 2 receptor. In words: MS binding assay of sodium channel, batrachotoxin as ligand, UHPLC-MS/MS. The conditions noted are these: rat cortex membrane 200 μg/well, 60 minutes at 37° C.; second value column of Table 4 (SNR 8), taken as MS binding.

Turning to `COC1(C2=NCCN2)COc2ccccc2O1` (stereo not shown) [RX821002], the “specific binding to alpha 2 adrenergic receptor” value in experiment [1] is reported as “shown specifically to bind”.

For the compound `COc1cc2nc(N3CCN(C(=O)c4ccco4)CC3)nc(N)c2cc1OC` [prazosine], in experiment [2], the “specific binding to alpha 1 adrenergic receptor” value is given as “shown specifically to bind”.

A word on the Kd: it is the equilibrium constant for the complex coming apart. The term EC50 denotes the concentration that produces a half-maximal response. Batrachotoxin gave a Kd on sodium channels of 91 nM. In experiment [3], this compound had an EC50 of 143 nM.
